From patent US8143031B2, “Production of N-acylated sulphur-containing amino acids with microorganisms having enhanced N-acyltransferase enzymatic activity” (Metabolic Explorer, priority 2008, dated 2012)

Tests used:
YncA = molecular target: T1, YncA (Escherichia coli, UniProt P76112); experiment: DTNB-based substrate and acyl-donor specificity test of YncA; assay type: biochemical, E. coli; details: for % Activity (activity of YncA with respect to the co-substrate Acetyl-coA): Acetyl-coA = 100; for % Activity (activity with respect to the substrate methionine): methionine = 100; for Activity as substrate of YncA (in words): DTNB-based assay
T1 construct: The purified protein was identified as YncA, a GCN5 related acyl transferase; made in house; host or cells: Untagged endogenous activity purified chromatographically from broken cells; E. coli is inferred
Protocol: (§1) Methionine L-amino-acid-N-acyl transferase activity was followed in microtiter plates by monitoring the apparition of HS-CoA with DTNB. The reaction solution, to which the sample was added, contained 200 mM Tris-HCl, pH 9.0, […], 3 mM Acetyl-coA and 20 mM methionine. Formation of the DTNB-CoA complex was monitored at 408 nm using a μQuant microtiter plate reader (BioTek Instruments, Inc., USA).
The substrate specificity was tested using the DTNB-based assay (see above).

[1] = molecular target: Pseudomonas PA4866 protein (Pseudomonas aeruginosa, UniProt Q9HUU7); details: cited from earlier work
Sequence of Pseudomonas PA4866 protein (Q9HUU7 whole entry): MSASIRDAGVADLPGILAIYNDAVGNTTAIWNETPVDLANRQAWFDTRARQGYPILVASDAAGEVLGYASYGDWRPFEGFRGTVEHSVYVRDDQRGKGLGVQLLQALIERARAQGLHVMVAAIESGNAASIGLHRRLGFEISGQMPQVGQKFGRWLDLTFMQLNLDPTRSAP

[2] = compared with the L-isomer; cited from earlier work
[3] = compared with pure methionine; cited from earlier work
[4] = MNAT activity test in vitro of purification fractions (DTNB, acetyl-coA, methionine); assay type: biochemical, E. coli; details: purification steps
Protocol: as §1
˜3 g of dry weight cells were rinsed 3 times with extraction buffer (EB) (50 mM phosphate, pH 7.0, 50 μM PLP, 500 μM DTT) and suspended in 70 mL EB. Cells were broken by sonication using a Rosett cell with a Bandelin Sonoplus ultrasonic homogenizer (Bandelin Electronic, Germany) equipped with a UW2070 probe and a SH70G tip (6 burst, 30 s, 100% efficiency, 75 W). The crude extract was centrifuged (30 min, 12.000 g, 4° C.) and solid ammonium sulfate was added to the supernatant to a final concentration of 2.3 M, and incubated on ice for 30 min. The solution was centrifuged (15 min, 15.000 g, 4° C.) and the pellet suspended in 40 mL phosphate buffer (50 mM phosphate, pH 7.0). Solid ammonium sulfate was added to a final concentration of 1.5 M, and the solution was incubated on ice for 30 min and then centrifuged (15 min, 15.000 g, 4 C). […]

[5] = methionine as substrate, various acyl-donors
[6] = Acetyl-coA as acyl-donor, various substrates

Molecule: CC(=O)SCCNC(=O)CCNC(=O)[C@H](O)C(C)(C)COP(=O)(O)OP(=O)(O)OC[C@H]1O[C@@H](n2cnc3c(N)ncnc32)[C@H](O)[C@@H]1OP(=O)(O)O [Acetyl-coA]
- Activity as acyl-donor of YncA (in words) (YncA; methionine as substrate): worked properly as an acyl donor
- % Activity (activity of YncA with respect to the co-substrate Acetyl-coA) (YncA; methionine as substrate): 100%
- Specific Activity (YncA; [5]): 745 mUI/mg protein

Molecule: NC(=O)C[C@H](N)C(=O)O [Asparagine]
- % Activity (activity with respect to the substrate methionine) (YncA; Acetyl-coA as acyl-donor): 2.4%
- Specific Activity (YncA; [6]): 18 mUI/mg protein
- Activity as substrate of YncA (in words) (YncA): Weak activities

Molecule: N[C@@H](CC(=O)O)C(=O)O [Aspartate]
- % Activity (activity with respect to the substrate methionine) (YncA; Acetyl-coA as acyl-donor): 1%

Molecule: CCCC(=O)SCCNC(=O)CCNC(=O)[C@H](O)C(C)(C)COP(=O)(O)OP(=O)(O)OC[C@H]1O[C@@H](n2cnc3c(N)ncnc32)[C@H](O)[C@@H]1OP(=O)(O)O [Butyryl-coA]
- Activity as acyl-donor of YncA (in words) (YncA; methionine as substrate): weak activities
- % Activity (activity of YncA with respect to the co-substrate Acetyl-coA) (YncA; methionine as substrate): 17%
- Specific Activity (YncA; [5]): 129 mUI/mg protein

Molecule: N[C@@H](CCC(=O)O)C(=O)O [Glutamate]
- % Activity (activity with respect to the substrate methionine) (YncA; Acetyl-coA as acyl-donor): 0.6%
- Specific Activity (YncA; [6]): 4 mUI/mg protein
- Activity as substrate of YncA (in words) (YncA): Weak activities

Molecule: NC(=O)CC[C@H](N)C(=O)O [Glutamine]
- % Activity (activity with respect to the substrate methionine) (YncA; Acetyl-coA as acyl-donor): 1.4%
- Specific Activity (YncA; [6]): 10 mUI/mg protein
- Activity as substrate of YncA (in words) (YncA): Weak activities

Molecule: NCCCC[C@H](N)C(=O)O [Lysine]
- % Activity (activity with respect to the substrate methionine) (YncA; Acetyl-coA as acyl-donor): 1.6%
- Specific Activity (YncA; [6]): 12 mUI/mg protein
- Activity as substrate of YncA (in words) (YncA): Weak activities

Molecule: CS(=O)(=O)CC[C@H](N)C(=O)O [Methionine sulfone]
- % Activity (activity with respect to the substrate methionine) (YncA; Acetyl-coA as acyl-donor): 178.8%
- Specific Activity (YncA; [6]): 1332 mUI/mg protein
- Activity as substrate of YncA (in words) (YncA): Strong activities

Molecule: C[S+]([O-])CC[C@H](N)C(=O)O (stereo partly drawn) [Methionine sulfoxide]
- % Activity (activity with respect to the substrate methionine) (YncA; Acetyl-coA as acyl-donor): 147.6%
- Specific Activity (YncA; [6]): 1100 mUI/mg protein
- Activity as substrate of YncA (in words) (YncA): Strong activities

Molecule: CS(=N)(=O)CC[C@H](N)C(=O)O (stereo partly drawn) [Methionine sulfoximine]
- % Activity (activity with respect to the substrate methionine) (YncA; Acetyl-coA as acyl-donor): 166.9%
- Specific Activity (YncA; [6]): 1243 mUI/mg protein
- Activity as substrate of YncA (in words) (YncA): Strong activities

Molecule: CSCC[C@H](N)C(=O)O [Methionine]
- Acetylation by Pseudomonas PA4866 protein [1]: did not acetylate
- % Activity (activity with respect to the substrate methionine) (YncA; Acetyl-coA as acyl-donor): 100%
- Specific Activity (YncA; [6]): 745 mUI/mg protein
- Activity as substrate of YncA (in words) (YncA): Strong activities

Molecule: CSCC[C@@H](NC(C)=O)C(=O)O [N-acetyl-D-methionine]
- Incorporation by animals [2]: not incorporated as well as its L-isomer

Molecule: CSCC[C@H](NC(C)=O)C(=O)O [NAM, N-acetyl-L-methionine]
- Methionine-sparing value [3]: same methionine-sparing value as pure methionine

Molecule: CCC(=O)SCCNC(=O)CCNC(=O)[C@H](O)C(C)(C)COP(=O)(O)OP(=O)(O)OC[C@H]1O[C@@H](n2cnc3c(N)ncnc32)[C@H](O)[C@@H]1OP(=O)(O)O [Propionyl-coA]
- Activity as acyl-donor of YncA (in words) (YncA; methionine as substrate): preferred acyl-donor
- % Activity (activity of YncA with respect to the co-substrate Acetyl-coA) (YncA; methionine as substrate): 140%
- Specific Activity (YncA; [5]): 1039 mUI/mg protein

B1: Purified Protein: Purified methionine N-acyl transferase from E. coli, identified as YncA, a GCN5 related acyl transferase, SEQ ID NO: 1 (protein, listed as Escherichia coli)
chain: MSIRFARKADCAAIAEIYNHAVLYTAAIWNDQTVDADNRIAWFEARTLAGYPVLVSEENGVVTGYASFGDWRSFDGFRHTVEHSVYVHPDHQGKGLGRKLLSRLIDEARDCGKHVMVAGIESQNQASLHLHQSLGFVVTAQMPQVGTKFGRWLDLTFMQLQLDERTEPDAIG
- Specific Activity ([4]; methionine N-acyl transferase activity): 19689 mUI/mg prot
- Activity ([4]; total methionine N-acyl transferase activity): 0.126 UI
